Source: paper PMC7894603 (Science translational medicine, 2020)

Tested on: Kras and Trp53 mutant (KP) lung adenocarcinoma mouse model
Type: in vivo
Settings: IT, urine 60-120 min; for change of KP/control reporter difference over 5, 7.5 and 10.5 weeks: MeanNormPARKP/MeanNormPARControl

Sequence	change of KP/control reporter difference over 5, 7.5 and 10.5 weeks	urinary reporter in KP versus healthy mice (10.5 weeks after tumor initiation, mean-normalized PAR)
GGLGPKGQTGC [PP07]	amplified over time	
GGSGSKIIGGGC [PP11]	amplified over time	most significantly enriched reporter
